# Experiments:
# PC-3 cells [1] = assay: F2N12S and SYTOX AADvanced double staining apoptosis assay; assay type: cell-based, human
# PC-3 cells [2] = assay: WST-1 cell proliferation assay, PC-3; assay type: cell-based, human; details: for IC50 (Silibinin)/IC50(Derivative) PC-3: fold potency relative to silibinin; for IC50: WST-1, three days of exposure, mean ± SD, n = 3
# Method: (§1) The in vitro antiproliferative activities of six 7-O-substituted and 26 3-O-substituted silybin derivatives were evaluated using the WST-1 cell proliferation assay, according to the procedure as described in the Experimental Section in both androgen-sensitive (LNCaP) and androgen-insensitive (PC-3 and DU145) human prostate cancer cell lines. Silibinin and docetaxel were used as a positive control for comparison in the parallel experiments and the IC50 values calculated from the dose-response curves are summarized in Table 1. […] A three-carbon linker in 11 and 29, as well as a five-carbon linker in 31, 37 and 40, are beneficial to the potency.
# (§2) All cell lines were initially purchased from American Type Culture Collection (ATCC^TM) (Manassas, VA, USA). The PC-3 and LNCaP prostate cancer cell lines were routinely cultured in RPIM-1640 medium supplemented with 10% FBS and 1% penicillin/streptomycin. The DU145 prostate cancer cells were routinely cultured in Eagle’s Minimum Essential Medium (EMEM) supplemented with 10% FBS and 1% penicillin/streptomycin. Cultures were maintained in a high humidity environment supplemented with 5% carbon dioxide at a temperature of 37 °C.
# (§3) PC-3, DU145, or LNCaP cells were plated in 96-well plates at a density of 3,200 per well in 200 µL of culture medium. The cells were then separately treated with silibinin, or synthesized silibinin derivatives, at five different doses for three days, while equal treatment volumes of DMSO (0.25%) were used as the vehicle control. The cells were cultured in a CO2 incubator at 37 °C for three days. A total of 10 µL of the premixed WST-1 cell proliferation reagent (Clontech) was added to each well. After mixing gently for one min on an orbital shaker, the cells were incubated for an additional 3 h at 37 °C. To ensure a homogeneous distribution of color, it is important to mix gently on an orbital shaker for one min. The absorbance of each well was measured using a microplate reader (Synergy HT, BioTek, Winooski, VT, USA) at a wavelength of 430 nm. […] For calculating the IC50 values, a linear proliferative inhibition was made based on at least five dosages for each compound.
# LNCaP cells = assay: WST-1 cell proliferation assay, LNCaP; assay type: cell-based, human; details: for IC50: WST-1, three days of exposure, mean ± SD, n = 3; for IC50 (Silibinin)/IC50(Derivative) LNCaP: fold potency relative to silibinin
# Method: as §1, §2, §3
# [3] = tested on: PWR-1E non-neoplastic human prostate epithelial cells; assay: WST-1 cell proliferation assay, PWR-1E non-neoplastic cells; assay type: cell-based; details: for IC50: Homo sapiens, PWR-1E, 72 h, WST-1, three days of exposure, mean ± SD, n = 3
# Method: (§4) Silibinin and five potent derivatives (11, 29, 31, 37, and 40) were selected for further evaluation against the MCF 10A non-neoplastic human mammary epithelial cell line and PWR-1E non-neoplastic human prostate epithelial cells.
# as §3
# DU145 cells = assay: WST-1 cell proliferation assay, DU145; assay type: cell-based, human; details: for IC50: Homo sapiens, DU-145, 72 h, WST-1, three days of exposure, mean ± SD, n = 3; for IC50 (Silibinin)/IC50(Derivative) DU145: fold potency relative to silibinin
# Method: as §1, §2, §3
# [4] = tested on: prostate cancer cell lines (LNCaP, PC-3 and DU145); assay: WST-1 cell proliferation assay, three prostate cancer cell lines together; assay type: cell-based, human; details: range for the five optimal derivatives over PC-3, DU145, LNCaP; for IC50: Homo sapiens
# Description: As part of our ongoing silybin project, this study aims to introduce a basic nitrogen-containing group to 7-OH of 3,5,20-O-trimethyl-2,3-dehydrosilybin or 3-OH of 5,7,20-O-trimethyl-2,3-dehydrosilybin via an appropriate linker for in vitro evaluation as potential anti-prostate cancer agents. The synthetic approaches to 7-O-substituted-3,5,20-O-trimethyl-2,3-dehydrosilybins through a five-step procedure and to 3-O-substituted-5,7,20-O-trimethyl-2,3- dehydrosilybins via a four-step transformation have been developed. Thirty-two nitrogen-containing derivatives of silybin have been achieved through these synthetic methods for the evaluation of their antiproliferative activities towards both androgen-sensitive (LNCaP) and androgen-insensitive prostate cancer cell lines (PC-3 and DU145) using the WST-1 cell proliferation assay. […] All these five optimal derivatives can arrest the PC-3 cell cycle in the G0/G1 phase and promote PC-3 cell apoptosis.
# as §3
# In summary, six 7-O-aminoalkyl-3,5-20-O-trimethyl-2,3-dehydrosilybins and 26 3-O-aminoalkyl-5,7,20-O-trimethyl-2,3-dehydrosilybins have been successfully synthesized through a five-step and four-step sequence, respectively. The synthetic methods can be used for the general synthesis of 7-O-substituted-3,5,20-O-trimethyl-2,3-dehydrosilybins and 3-O-substituted-5,7,20-O- trimethyl-2,3-dehydrosilybins. The antiproliferative activities of the 32 derivatives against three prostate cancer cell lines have been evaluated using the WST-1 cell proliferation assay. […] All these five optimal derivatives can cause PC-3 cell accumulation in a G0/G1 phase by increasing the cell population in this phase at 16 h. Derivatives 11, 37, and 40 show a stronger ability than derivatives 29 and 31 in activating PC-3 cell apoptosis by inducing appreciable levels of apoptotic cell death at a 5 µM concentration after 16 h of treatment.
# PC-3 cells [5] = assay: Cell cycle analysis by flow cytometry (propidium iodide); assay type: cell-based, human; details: 20 µM, 16 h; controls 55.7% (11), 36.2% (29), 33.1% (31, 37, 40)
# Method: Silibinin can arrest the rat (H-7 and I-8) and human prostate cancer cell (LNCaP) cycle at the G1 phase, and cause G1 and G2-M PC-3 prostate cancer cell cycle arrest.
# PC-3 cells were plated in 24-well plates at a density of 200,000 per well in 400 µL of culture medium. […] […] Both attached and floating cells were collected in a centrifuge tube by centrifugation at an rcf value of 450 g for 5 min. After discarding the supernatant, the collected cells were re-suspended with 500 µL 80% cold ethanol to fix them for 30 min in 4 °C. The fixed cells could be stored at −20 °C for one week. After fixation, the ethanol was removed after centrifuging and the cells were washed with PBS. The cells were then re-suspend with 100 μL of […] ribonuclease and were cultured at 37 °C for 30 min to degrade all RNA. The cells were stained with 200 μL of 50 μg/mLpropidium iodide stock solution for 30 min at […], and then the fluorescence intensity of PI was detected in individual PC-3 cells using an Attune flow cytometer (Life Technologies, Carlsbad, CA, USA) within 0.5 to 1 h after staining.
# [6] = tested on: MCF 10A non-neoplastic human mammary epithelial cell line; assay: WST-1 cell proliferation assay, MCF 10A non-neoplastic cells; assay type: cell-based; details: for IC50: Homo sapiens, MCF-10A, 72 h, WST-1, three days of exposure, mean ± SD, n = 3
# Method: as §4, §3
# [7] = 10 µM, 16 h, range over 11, 37, 40
# [8] = 20 µM, 16 h, range over 11, 37, 40
smiles,measurement,setting,value
CCCN(CCC)CCCOc1cc(OC)c2c(=O)c(OC)c(-c3ccc4c(c3)OC(c3ccc(OC)c(OC)c3)C(CO)O4)oc2c1 (stereo not shown) [Compound 11],early phase apoptosis in PC-3 cells,"PC-3 cells [1]; 5 µM, 16 h, range over 11, 37, 40",26–59%
same,early apoptotic cells,PC-3 cells [1]; [7],56–76%
same,late apoptotic/necrotic cells,PC-3 cells [1]; [7],6–40%
same,early apoptotic cells,PC-3 cells [1]; [8],54–75%
same,late apoptotic/necrotic cells,PC-3 cells [1]; [8],16–44%
same,concentration at which the apoptotic cell population reached its maximum,"PC-3 cells [1]; PC-3, 16 h",5 µM
same,IC50 (Silibinin)/IC50(Derivative) PC-3,PC-3 cells [2],52
same,IC50,"LNCaP cells; Homo sapiens, LNCaP, 72 h",≤ 3 µM
same,IC50,LNCaP cells,1.82 ± 0.14 µM
same,IC50 (Silibinin)/IC50(Derivative) LNCaP,LNCaP cells,24
same,IC50,[3],> 50 µM
same,antiproliferative activity towards PWR-1E,[3]; up to a 50 µM concentration,does not demonstrate apparent antiproliferative activity
same,IC50,DU145 cells,1.84 ± 0.14 µM
same,IC50 (Silibinin)/IC50(Derivative) DU145,DU145 cells,51
same,IC50,[4],1.4 to 3.06 µM
same,fold improvement in potency compared to silibinin,[4],17- to 52 fold
same,PC-3 cell population in G0/G1 phase,PC-3 cells [5],66.3%
same,IC50,[6],> 50 µM
same,antiproliferative activity towards MCF 10A,[6]; up to a 50 µM concentration,does not demonstrate apparent antiproliferative activity
CCCCN(CCCC)CCCOc1c(-c2ccc3c(c2)OC(c2ccc(OC)c(OC)c2)C(CO)O3)oc2cc(OC)cc(OC)c2c1=O (stereo not shown) [Compound 29],maximum apoptotic cell population,"PC-3 cells [1]; 50 µM, 16 h",71%
same,apoptotic cell death,"PC-3 cells [1]; up to a 10 µM concentration, 16 h",less than 10%
same,IC50,"PC-3 cells [2]; Homo sapiens, PC-3, 72 h",≤ 3 µM
same,IC50,PC-3 cells [2],2.73 ± 0.12 µM
same,IC50,"LNCaP cells; Homo sapiens, LNCaP, 72 h",≤ 3 µM
same,IC50,LNCaP cells,2.21 ± 0.17 µM
same,IC50,[3],< 5 µM
same,IC50,DU145 cells,2.51 ± 0.04 µM
same,IC50,[4],1.4 to 3.06 µM
same,fold improvement in potency compared to silibinin,[4],17- to 52 fold
same,PC-3 cell population in G0/G1 phase,PC-3 cells [5],50.3%
same,IC50,[6],< 5 µM
COc1cc(OC)c2c(=O)c(OCCCN3CCOCC3)c(-c3ccc4c(c3)OC(c3ccc(OC)c(OC)c3)C(CO)O4)oc2c1 (stereo not shown) [Compound 38],IC50,"PC-3 cells [2]; Homo sapiens, PC-3, 72 h",2.94 ± 0.13 µM
same,IC50 (Silibinin)/IC50(Derivative) PC-3,PC-3 cells [2],25
same,IC50,"LNCaP cells; Homo sapiens, LNCaP, 72 h",1.74 ± 0.97 µM
same,IC50 (Silibinin)/IC50(Derivative) LNCaP,LNCaP cells,25
same,IC50,DU145 cells,10.6 ± 0.63 µM
same,IC50 (Silibinin)/IC50(Derivative) DU145,DU145 cells,9
COc1cc(OC)c2c(=O)c(OCCCCN3CCOCC3)c(-c3ccc4c(c3)OC(c3ccc(OC)c(OC)c3)C(CO)O4)oc2c1 (stereo not shown) [Compound 39],IC50,"PC-3 cells [2]; Homo sapiens, PC-3, 72 h",3.49 ± 0.24 µM
same,IC50 (Silibinin)/IC50(Derivative) PC-3,PC-3 cells [2],21
same,IC50,"LNCaP cells; Homo sapiens, LNCaP, 72 h",2.84 ± 0.22 µM
same,IC50 (Silibinin)/IC50(Derivative) LNCaP,LNCaP cells,15
same,IC50,DU145 cells,6.36 ± 0.37 µM
same,IC50 (Silibinin)/IC50(Derivative) DU145,DU145 cells,15
COc1cc(OC)c2c(=O)c(OCCCN3CCNCC3)c(-c3ccc4c(c3)OC(c3ccc(OC)c(OC)c3)C(CO)O4)oc2c1 (stereo not shown) [Compound 41],IC50,"PC-3 cells [2]; Homo sapiens, PC-3, 72 h",9.98 ± 4.94 µM
same,IC50 (Silibinin)/IC50(Derivative) PC-3,PC-3 cells [2],7
same,IC50,"LNCaP cells; Homo sapiens, LNCaP, 72 h",11.4 ± 5.91 µM
same,IC50 (Silibinin)/IC50(Derivative) LNCaP,LNCaP cells,4
same,IC50,DU145 cells,> 50 µM
same,IC50 (Silibinin)/IC50(Derivative) DU145,DU145 cells,<2
COc1cc(OC)c2c(=O)c(OCCCCN3CCNCC3)c(-c3ccc4c(c3)OC(c3ccc(OC)c(OC)c3)C(CO)O4)oc2c1 (stereo not shown) [Compound 42],IC50,"PC-3 cells [2]; Homo sapiens, PC-3, 72 h",5.3 ± 0.66 µM
same,IC50 (Silibinin)/IC50(Derivative) PC-3,PC-3 cells [2],14
same,IC50,"LNCaP cells; Homo sapiens, LNCaP, 72 h",4.58 ± 1.77 µM
same,IC50 (Silibinin)/IC50(Derivative) LNCaP,LNCaP cells,10
same,IC50,DU145 cells,6.85 ± 0.77 µM
same,IC50 (Silibinin)/IC50(Derivative) DU145,DU145 cells,14
COc1cc(OC)c2c(=O)c(OCCCCCN3CCNCC3)c(-c3ccc4c(c3)OC(c3ccc(OC)c(OC)c3)C(CO)O4)oc2c1 (stereo not shown) [Compound 43],IC50,"PC-3 cells [2]; Homo sapiens, PC-3, 72 h",7.87 ± 1.47 µM
same,IC50 (Silibinin)/IC50(Derivative) PC-3,PC-3 cells [2],9
same,IC50,"LNCaP cells; Homo sapiens, LNCaP, 72 h",14.4 ± 7.49 µM
same,IC50 (Silibinin)/IC50(Derivative) LNCaP,LNCaP cells,3
same,IC50,DU145 cells,48.1 ± 16.3 µM
same,IC50 (Silibinin)/IC50(Derivative) DU145,DU145 cells,2
COc1cc(OC)c2c(=O)c(OCCCN3CCN(C)CC3)c(-c3ccc4c(c3)OC(c3ccc(OC)c(OC)c3)C(CO)O4)oc2c1 (stereo not shown) [Compound 44],IC50,"PC-3 cells [2]; Homo sapiens, PC-3, 72 h",8.45 ± 2.89 µM
same,IC50 (Silibinin)/IC50(Derivative) PC-3,PC-3 cells [2],9
same,IC50,"LNCaP cells; Homo sapiens, LNCaP, 72 h",12.8 ± 7.8 µM
same,IC50 (Silibinin)/IC50(Derivative) LNCaP,LNCaP cells,3
same,IC50,DU145 cells,18.6 ± 7.67 µM
same,IC50 (Silibinin)/IC50(Derivative) DU145,DU145 cells,5
COc1cc(OC)c2c(=O)c(OCCCCCN3CCN(C)CC3)c(-c3ccc4c(c3)OC(c3ccc(OC)c(OC)c3)C(CO)O4)oc2c1 (stereo not shown) [Compound 45],IC50,"PC-3 cells [2]; Homo sapiens, PC-3, 72 h",4.72 ± 0.88 µM
same,IC50 (Silibinin)/IC50(Derivative) PC-3,PC-3 cells [2],15
same,IC50,"LNCaP cells; Homo sapiens, LNCaP, 72 h",5.66 ± 0.44 µM
same,IC50 (Silibinin)/IC50(Derivative) LNCaP,LNCaP cells,8
same,IC50,DU145 cells,8.59 ± 2.23 µM
same,IC50 (Silibinin)/IC50(Derivative) DU145,DU145 cells,11
"CC(=O)O[C@@]12CO[C@@H]1C[C@H](O)[C@@]1(C)C(=O)[C@H](O)C3=C(C)[C@@H](OC(=O)[C@H](O)[C@@H](NC(=O)OC(C)(C)C)c4ccccc4)C[C@@](O)([C@@H](OC(=O)c4ccccc4)[C@H]21)C3(C)C [Docetaxel, docetaxel, reference compound]",IC50,"PC-3 cells [2]; Homo sapiens, PC-3, 72 h",0.0019 ± 0.0006 µM
same,IC50,"LNCaP cells; Homo sapiens, LNCaP, 72 h",0.0002 ± 0.0001 µM
same,IC50,DU145 cells,0.0012 ± 0.0003 µM
